The text below walks through data of PubChem BioAssay AID298 (DTP/NCI, 2004).

Where “and” joins values, the source holds several entries; their conditions need not be identical. Equal entries are not always repeated. Results filed as inconclusive are left out.

For this assay, the system named is MX-1 breast xenograft, intrarenal, nude mice, tumor weight. Briefly: NCI In Vivo Anticancer Drug Screen. Data for tumor model Human Mammary Carcinoma MX-1 Xenograft (intrarenal inoculation) in NU/NU BALB/C (nude) mice. As to conditions: endpoint: mean tumor weight change, higher = larger tumour. A digest of the protocol:
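Antitumor activity is expressed as a T/C ratio. The treated group's tumor size or survival is compared against the vehicle-treated control group in mice bearing transplanted tumors.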

As for `CN1CCN(CN2C(=O)C3C4C=CC(C3C2=O)C2C3C(=O)N(CN5CCN(C)CC5)C(=O)C3C42)CC1` (stereo unspecified), the T/C is, setting by setting: (dose: 9.3 mg/kg/injection, schedule: Q04DX003 (ip), vehicle: water) 98 % of control; (dose: 18.75 mg/kg/injection, schedule: Q04DX003 (ip), vehicle: water) 106 % of control; (dose: 25.0 mg/kg/injection, schedule: Q04DX003 (ip), vehicle: water) 67 % of control; (dose: 37.5 mg/kg/injection, schedule: Q04DX003 (ip), vehicle: water) 83 % of control; (dose: 50.0 mg/kg/injection, schedule: Q04DX003 (ip), vehicle: water) 52 % of control; (dose: 75.0 mg/kg/injection, schedule: Q04DX003 (ip), vehicle: other) 122 % of control. Also, the T/C reads like this: (dose: 75.0 mg/kg/injection, schedule: Q04DX003 (ip), vehicle: water) 72 % of control and 94 % of control; (dose: 100.0 mg/kg/injection, schedule: Q04DX003 (ip), vehicle: water) 45 % of control.
Consider `Brc1c(NC2=NCCN2)ccc2nccnc12`, for which the T/C is 69 % of control (dose: 50.0 mg/kg/injection, schedule: Q04DX003 (sc), vehicle: saline); 57 % of control (dose: 100.0 mg/kg/injection, schedule: Q04DX003 (sc), vehicle: saline); 41 % of control (dose: 200.0 mg/kg/injection, schedule: Q04DX003 (sc), vehicle: saline); 23 % of control (dose: 400.0 mg/kg/injection, schedule: Q04DX003 (sc), vehicle: saline).
Consider `CCCCCCCC(=O)O[C@H]1[C@H]2[C@@H](CC1(C)C)C(=O)[C@]13O[C@H]1C(=O)[C@]1(CO1)[C@]23C`, for which the T/C reads like this: (dose: 5.0 mg/kg/injection, schedule: Q04DX003 (ip), vehicle: saline with Tween-80) 100 % of control; (dose: 10.0 mg/kg/injection, schedule: Q04DX003 (ip), vehicle: saline with Tween-80) 96 % of control; (dose: 20.0 mg/kg/injection, schedule: Q04DX003 (ip), vehicle: saline with Tween-80) 80 % of control.
Turning to `c1ccc2c(c1)[As]=c1ccccc1=[As]2` (stereo unspecified), the T/C (dose: 75.0 mg/kg/injection, schedule: Q04DX003 (sc), vehicle: saline) was 108 % of control; the T/C (dose: 150.0 mg/kg/injection, schedule: Q04DX003 (sc), vehicle: saline) is 87 % of control; the T/C (dose: 300.0 mg/kg/injection, schedule: Q04DX003 (sc), vehicle: saline) is 99 % of control.
On to `N#Cc1c(N)[nH]c2ccc(Sc3ccccc3)cc12`, for which the T/C was 92 % of control (dose: 30.0 mg/kg/injection, schedule: Q04DX003 (ip), vehicle: saline with Tween-80); 88 % of control (dose: 60.0 mg/kg/injection, schedule: Q04DX003 (ip), vehicle: saline with Tween-80); 75 % of control (dose: 120.0 mg/kg/injection, schedule: Q04DX003 (ip), vehicle: saline with Tween-80).
As to `CNC(=O)O/N=C(\CN=[N+]=[N-])C(C)(C)C`, the T/C by setting is: (dose: 0.63 mg/kg/injection, schedule: Q04DX003 (sc), vehicle: saline) 116 % of control; (dose: 1.25 mg/kg/injection, schedule: Q04DX003 (sc), vehicle: saline) 71 % of control; (dose: 2.5 mg/kg/injection, schedule: Q04DX003 (sc), vehicle: saline) 84 % of control.
Consider `O=C(O)c1ccc(C(=O)O)c(C(=O)O)c1.[NH-]C1CCCCC1[NH-].[Pt+2]`, for which the T/C (dose: 3.12 mg/kg/injection, schedule: Q01DX010 (sc), vehicle: sodium bicarbonate) was 74 % of control; the T/C (dose: 6.25 mg/kg/injection, schedule: Q01DX010 (sc), vehicle: sodium bicarbonate) was 40 % of control; the T/C (dose: 12.5 mg/kg/injection, schedule: Q01DX010 (sc), vehicle: sodium bicarbonate) was 6 % of control.
Regarding `NC(=S)N/N=C/c1ncccc1O`, the T/C was 86 % of control (dose: 150.0 mg/kg/injection, schedule: Q04DX003 (ip), vehicle: suspension in saline) and 93 % of control (dose: 300.0 mg/kg/injection, schedule: Q04DX003 (ip), vehicle: suspension in saline).
With `C/C(=N\NC(=S)N1CCN(c2ccccn2)CC1)c1ccccn1`, under “dose: 75.0 mg/kg/injection, schedule: Q04DX003 (sc), vehicle: water”, the T/C was 104 % of control.
Take `CCCCCCCCCCC(OC(C)=O)C1CCC(C2CCC(C(O)CCCCCCCCCCCCC3C=C(C)OC3=O)O2)O1` (stereo unspecified): the T/C (dose: 20.0 mg/kg/injection, schedule: Q04DX003 (sc), vehicle: water) is 80 % of control; the T/C (dose: 40.0 mg/kg/injection, schedule: Q04DX003 (sc), vehicle: water) was 72 % of control; the T/C (dose: 80.0 mg/kg/injection, schedule: Q04DX003 (sc), vehicle: water) was 71 % of control; the T/C (dose: 160.0 mg/kg/injection, schedule: Q04DX003 (sc), vehicle: water) is 70 % of control.
In the case of `COc1cc(/C=C/[N+](=O)[O-])cc(Br)c1OC`, the T/C was 81 % of control (dose: 6.25 mg/kg/injection, schedule: Q04DX003 (ip), vehicle: saline with Tween-80); 104 % of control (dose: 12.5 mg/kg/injection, schedule: Q04DX003 (ip), vehicle: saline with Tween-80); 92 % of control and 105 % of control (dose: 25.0 mg/kg/injection, schedule: Q04DX003 (ip), vehicle: saline with Tween-80); 96 % of control (dose: 50.0 mg/kg/injection, schedule: Q04DX003 (ip), vehicle: saline with Tween-80).
Turning to `C=C(OC)C(Nc1cc(OC)c(OC)cc1C(=O)OC1CC(O[C@@H]2C(=O)C(NC(=O)OC)=C3/C(=C\CSSSC)[C@]2(O)C#C/C=C\C#C[C@@H]3OC2OC(C)C(NOC3CC(O)C(SC)C(C)O3)C(O)C2OC2CC(OC)C(NCCC)CO2)OC(C)C1O)OC` (stereo partly specified), the T/C was 71 % of control (dose: 0.31 micrograms/kg/injection, schedule: Q04DX003 (ip), vehicle: alcohol); 39 % of control (dose: 0.32 micrograms/kg/injection, schedule: Q04DX003 (ip), vehicle: saline + alcohol); 68 % of control (dose: 0.62 micrograms/kg/injection, schedule: Q04DX003 (ip), vehicle: alcohol); 17 % of control (dose: 0.64 micrograms/kg/injection, schedule: Q04DX003 (ip), vehicle: saline + alcohol); 22 % of control (dose: 1.25 micrograms/kg/injection, schedule: Q04DX003 (ip), vehicle: alcohol); 27 % of control (dose: 1.28 micrograms/kg/injection, schedule: Q04DX003 (ip), vehicle: saline + alcohol). The T/C (dose: 2.5 micrograms/kg/injection, schedule: Q04DX003 (ip), vehicle: alcohol) was 26 % of control; the T/C (dose: 2.56 micrograms/kg/injection, schedule: Q04DX003 (ip), vehicle: saline + alcohol) was 13 % of control; the T/C (dose: 5.0 micrograms/kg/injection, schedule: Q04DX003 (ip), vehicle: alcohol) was 12 % of control.
Take `CN(C)c1nc(N(C)C)[n+]([O-])c(N(C)C)n1`: the T/C is 83 % of control (dose: 200.0 mg/kg/injection, schedule: Q01DX010 (ip), vehicle: water) and 107 % of control (dose: 400.0 mg/kg/injection, schedule: Q01DX010 (ip), vehicle: water).
`NC1(C(=O)O)CCCC1`: the T/C by setting is: (dose: 25.0 mg/kg/injection, schedule: Q01DX010 (sc), vehicle: saline) 73 % of control; (dose: 50.0 mg/kg/injection, schedule: Q01DX010 (sc), vehicle: saline) 31 % of control.
As to `COc1nc(C(Cl)(Cl)Cl)c(Cl)c(OC)c1Cl`, the T/C reads like this: (dose: 89.0 mg/kg/injection, schedule: Q04DX003 (oral), vehicle: Klucel (hydroxypropylcellulose) (HPC)) -100 % of control; (dose: 133.5 mg/kg/injection, schedule: Q04DX003 (oral), vehicle: Klucel (hydroxypropylcellulose) (HPC)) -100 % of control; (dose: 200.0 mg/kg/injection, schedule: Q04DX003 (oral), vehicle: Klucel (hydroxypropylcellulose) (HPC)) -100 % of control; (dose: 300.0 mg/kg/injection, schedule: Q04DX003 (oral), vehicle: Klucel (hydroxypropylcellulose) (HPC)) -100 % of control; (dose: 450.0 mg/kg/injection, schedule: Q04DX003 (oral), vehicle: Klucel (hydroxypropylcellulose) (HPC)) -100 % of control.
